Four compounds from patent US9879303B2, “Chromogenic glucuronidase substrates and uses” (Glycosynth Limited, priority 2013, dated 2018) can be followed below.

Structures can show the parent of a compound that is named as a salt.

What all share (assay type): cell-based
In assay [1] the test system is E. faecium NCTC 7171. Briefly: screen of strains in broth medium containing FAC. More on the design: key: Red, Green, Black or Purple mean strong colour; Red, Green, Black or Purple mean strong colour; Red, Green, Black or Purple mean strong colour; Red, Green, Black or Purple mean strong colour; +/− means less colour than strong; Tr means a trace of colour, less than +/−; — means no colour. The conditions noted are these: 37° C. 18 hours.

For the next assay, the system named is E. faecalis NCTC 775. Briefly: screen of strains in broth medium containing FAC. On the set-up: key: Red, Green, Black or Purple mean strong colour; Red, Green, Black or Purple mean strong colour; Red, Green, Black or Purple mean strong colour; Red, Green, Black or Purple mean strong colour; +/− means less colour than strong; Tr means a trace of colour, less than +/−; — means no colour. The following applies: 37° C. 18 hours.

The subject of assay [2] is 20 different microbial strains. As to the kind of experiment: specificity of action on 20 different microbial strains, Columbia agar. The conditions noted are these: 19 organisms other than E. coli NCTC 10418, FAC. As to the method:
The specificity of action of both DHN-β-D-glucuronide (2) and of catechol-β-D-glucuronide (1), as well as their 6′-methyl esters (4 and 6), was first established using multi-point inoculation of 20 different microbial strains onto Columbia agar plates. The strains chosen represented species commonly encountered in diagnostic microbiology. The substrates were incorporated into the agar at a concentration of 300 mg/L with an iron salt, ferric ammonium citrate, (hereinafter known as FAC) at 500 mg/L. The plates were incubated for 18 h at 37° C. in air.
Of the 20 strains, only the β-D-glucuronidase-positive strain of E. coli, (E. coli NCTC 10418) was able to hydrolyse the substrates. This organism generated diffuse, purple-brown colonies with the catechol substrates and diffuse, maroon colonies with the DHN substrates. Essentially identical results were obtained if other iron salts (e.g. iron(II) gluconate, iron(II) acetate, iron(II) citrate, iron(II) acetylacetonate and iron(III) acetylacetonate) were substituted in place of FAC. The iron compound can be either iron(II) (i.e. ferrous) or iron(III) (i.e. ferric). Both types of compound work equally, and the coloured chelates were still formed when the plates were incubated under anaerobic conditions, which is another useful feature of the present invention. The substrates may also be autoclaved at 116° C. for 20 minutes with no decrease in sensitivity. It will be appreciated that the media and the reagents will all contain at least traces of iron compounds. […] In contrast, supplementing the growth media with compounds of other metals gave either no coloured endpoint or an extremely poor one to visualise. […] Therefore the latter substrates were preferred for more extensive evaluation. […] For convenience, further evaluation of catechol-β-D-glucuronide and DHN-β-D-glucuronide was conducted with the CHA salt forms only (1 and 2b). In the present invention the counter ion of the glucuronide is not considered to be of special significance. For acidic enzyme substrates (including glucuronides), a variety of different counter ions, both inorganic and organic, are well known in the prior art.

For assay [3], the system named is E. faecium NCTC 7171. Briefly: screen of strains on agar plates (CPS ID 3 or Columbia agar). On the set-up: key: Red, Green, Black or Purple mean strong colour; Red, Green, Black or Purple mean strong colour; Red, Green, Black or Purple mean strong colour; Red, Green, Black or Purple mean strong colour; +/− means less colour than strong; Tr means a trace of colour, less than +/−; — means no colour. The following applies: 37° C. 18 hours.

For the compound `O=C(O)C1OC(Oc2ccccc2O)C(O)C(O)C1O` [Compound 1, Catechol β-D-Glucuronide CHA Salt], the colour entry in the assay on E. faecium NCTC 7171 [1] and in the assay on E. faecalis NCTC 775 was “—” throughout. Besides, the “result with the other 19 organisms” value in assay [2] is recorded as “uniformly negative”.

Consider `O=C(O)C1OC(Oc2cc3ccccc3cc2O)C(O)C(O)C1O` [Compound 2b, DHN-β-D-Glucuronide CHA Salt], for which the colour entry with E. faecium NCTC 7171 [1] and with E. faecalis NCTC 775 was “—” in each case. Besides, the “result with the other 19 organisms” value in assay [2] is reported as “uniformly negative”.

For `O=C(O)[C@H]1O[C@@H](Oc2c[nH]c3cc(Cl)ccc23)[C@H](O)[C@@H](O)[C@@H]1O` [Rose-β-D-glucuronide CHA salt, 6-chloro-3-indolyl β-D-glucuronide], the colour entry in the assay with E. faecium NCTC 7171 [3] was “—”.

As to `O=C(O)[C@H]1O[C@@H](Oc2c[nH]c3ccc(Br)c(Cl)c23)[C@H](O)[C@@H](O)[C@@H]1O` [X-β-D-glucuronide CHA salt, 5-bromo-4-chloro-3-indolyl β-D-glucuronide], the colour result with E. faecium NCTC 7171 [3] is on record as “—”.
